Laboratory results as given in article PMC5896373 (Molecular Pharmacology, 2018).

Key:
[1] = test system: P2X7R left flipper point mutant T283A; assay: Two-electrode voltage clamp of ATP-evoked currents in Xenopus oocytes; format: cell-based, human
Protocol: (§1) Injected oocytes were stored at 16°C in ND96 buffer [in millimolar concentrations, NaCl 96, KCl 2, CaCl2 1.8, MgCl2 1, sodium pyruvate 5, and HEPES 5 (pH 7.6) supplemented with 50 μg/ml gentamycin and 50 μg/ml tetracycline]. Three to seven days postinjection two-electrode voltage clamp recordings were made from oocytes bathed in divalent-free ND96 buffer (in millimolar concentrations, NaCl 96, KCl 2, sodium pyruvate 5, HEPES 5, and 0.1 flufenamic acid, pH 7.6). Oocytes were voltage clamped at a holding potential of −60 mV with a GeneClamp500B amplifier (Molecular Devices).
(§2) Electrophysiological traces were digitized with a Digidata 1322A and collected using pCLAMP 8.2 software (Molecular Devices, Menlo Park, CA). An EC90 concentration of ATP was used to test antagonist sensitivity for the P2X7-2Nβ and mutant receptors [ATP sensitivity of the chimeras and mutants are reported in [Allsopp et al. (2017)]] to standardize for any changes in ATP sensitivity.
(§3) Inhibition by the antagonists was expressed as the percentage of the peak current amplitude of an EC90 concentration of ATP recorded before the application of antagonist (ATP gave reproducible responses to ATP in the absence of antagonist). […] Any significant differences from the P2X7-2Nβ control were calculated by one-way analysis of variance, followed by Dunnett’s test (using GraphPad Prism 6). […]

[2] = test system: P2X7R left flipper point mutant D280A; assay: as above; format: cell-based, human
Protocol: (§4) The production of the correct mutations and absence of coding errors was determined by DNA sequencing (Automated ABI Sequencing Service, University of Leicester, UK). cRNA was generated for the mutants and 50 nl (50 ng) was injected into manually defoliculated stage V Xenopus laevis oocytes using an Inject+Matic microinjector (J.A. Gabay, Inject+Matic, Geneva, Switzerland). Injected oocytes were stored at 16°C in ND96 buffer [in millimolar concentrations, NaCl 96, KCl 2, CaCl2 1.8, MgCl2 1, sodium pyruvate 5, and HEPES 5 (pH 7.6) supplemented with 50 μg/ml gentamycin and 50 μg/ml tetracycline]. Three to seven days postinjection two-electrode voltage clamp recordings were made from oocytes bathed in divalent-free ND96 buffer (in millimolar concentrations, NaCl 96, KCl 2, sodium pyruvate 5, HEPES 5, and 0.1 flufenamic acid, pH 7.6). Oocytes were voltage clamped at a holding potential of −60 mV with a GeneClamp500B amplifier (Molecular Devices).
(§5) Inhibition by the antagonists was expressed as the percentage of the peak current amplitude of an EC90 concentration of ATP recorded before the application of antagonist (ATP gave reproducible responses to ATP in the absence of antagonist). Inhibition curves were fitted with the Hill equation (variable slope) using GraphPad Prism 6 (GraphPad Software, San Diego, CA). […]

[3] = test system: chimeric P2X7/1 receptor 112–118; assay: cell-based; format: cell-based, human; details: chimera 112–118
Protocol: (§6) Additional point mutants were made using the QuikChange mutagenesis kit (Stratagene California, La Jolla, CA). The production of the correct mutations and absence of coding errors was determined by DNA sequencing (Automated ABI Sequencing Service, University of Leicester, UK). cRNA was generated for the mutants and 50 nl (50 ng) was injected into manually defoliculated stage V Xenopus laevis oocytes using an Inject+Matic microinjector (J.A. Gabay, Inject+Matic, Geneva, Switzerland). Injected oocytes were stored at 16°C in ND96 buffer [in millimolar concentrations, NaCl 96, KCl 2, CaCl2 1.8, MgCl2 1, sodium pyruvate 5, and HEPES 5 (pH 7.6) supplemented with 50 μg/ml gentamycin and 50 μg/ml tetracycline]. Three to seven days postinjection two-electrode voltage clamp recordings were made from oocytes bathed in divalent-free ND96 buffer (in millimolar concentrations, NaCl 96, KCl 2, sodium pyruvate 5, HEPES 5, and 0.1 flufenamic acid, pH 7.6). Oocytes were voltage clamped at a holding potential of −60 mV with a GeneClamp500B amplifier (Molecular Devices).
(§7) Inhibition by the antagonists was expressed as the percentage of the peak current amplitude of an EC90 concentration of ATP recorded before the application of antagonist (ATP gave reproducible responses to ATP in the absence of antagonist). Inhibition curves were fitted with the Hill equation (variable slope) using GraphPad Prism 6 (GraphPad Software, San Diego, CA). […] Individual concentration-response curves were generated for individual experiments, and statistical analysis was carried out on the data generated. […] Data are shown as mean ± S.E.M. In all cases n ≥ 3 for all data points.

[4] = test system: chimeric P2X7/1 receptor 295–310; assay: cell-based; format: cell-based, human; details: chimera 295–310
Protocol: as §6, §7

[5] = test system: P2X7R left flipper point mutant T282A; assay: Two-electrode voltage clamp of ATP-evoked currents in Xenopus oocytes; format: cell-based, human
Protocol: as §4, §5

[6] = test system: P2X7R left flipper point mutant K281A; assay: as above; format: cell-based, human
Protocol: as §1, §2, §3

[7] = molecular target: T1, chimeric P2X7/1 receptor 89–94 (Homo sapiens, UniProt Q99572, I21V/M24R/N16P/N25R/Q22R/R20V/S23N/T19I/T90V/T94V/Y26L); design: method as in Allsopp et al., 2017; details: chimera 89–94; ref Allsopp et al., 2017; cited from earlier work
T1 construct: expressed in transfected cells; host or cells: Xenopus laevis oocytes (cRNA injection)
T1 sequence (Q99572 1-595 N16P/T19I/R20V/I21V/Q22R/S23N/M24R/N25R/Y26L/T90V/T94V): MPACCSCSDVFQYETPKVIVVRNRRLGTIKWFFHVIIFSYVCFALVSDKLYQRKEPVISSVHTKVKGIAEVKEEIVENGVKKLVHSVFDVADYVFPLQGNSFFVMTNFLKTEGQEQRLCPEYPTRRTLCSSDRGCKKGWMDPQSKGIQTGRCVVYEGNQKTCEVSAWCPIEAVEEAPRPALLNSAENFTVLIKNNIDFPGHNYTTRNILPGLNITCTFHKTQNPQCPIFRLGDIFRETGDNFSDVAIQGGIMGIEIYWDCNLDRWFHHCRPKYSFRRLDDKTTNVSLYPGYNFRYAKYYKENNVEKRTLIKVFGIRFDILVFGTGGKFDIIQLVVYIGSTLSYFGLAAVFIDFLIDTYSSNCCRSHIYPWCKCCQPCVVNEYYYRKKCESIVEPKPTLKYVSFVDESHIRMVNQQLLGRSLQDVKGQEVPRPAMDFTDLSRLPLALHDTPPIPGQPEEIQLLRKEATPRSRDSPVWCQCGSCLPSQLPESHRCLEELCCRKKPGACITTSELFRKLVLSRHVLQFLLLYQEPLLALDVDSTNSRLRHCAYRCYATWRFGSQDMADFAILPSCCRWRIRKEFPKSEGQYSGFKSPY

[8] = molecular target: T2, P2X7-2Nβ 73–79 deletion (Homo sapiens, UniProt Q99572, DEL73-79/I21V/M24R/N16P/N25R/Q22R/R20V/S23N/T19I/Y26L); design: method as in Allsopp et al., 2017; details: ref Allsopp et al., 2017; cited from earlier work
T2 construct: expressed in transfected cells; host or cells: Xenopus laevis oocytes (cRNA injection)
T2 sequence (Q99572 with tags, fused parts or gaps N16P/T19I/R20V/I21V/Q22R/S23N/M24R/N25R/Y26L/DEL73-79): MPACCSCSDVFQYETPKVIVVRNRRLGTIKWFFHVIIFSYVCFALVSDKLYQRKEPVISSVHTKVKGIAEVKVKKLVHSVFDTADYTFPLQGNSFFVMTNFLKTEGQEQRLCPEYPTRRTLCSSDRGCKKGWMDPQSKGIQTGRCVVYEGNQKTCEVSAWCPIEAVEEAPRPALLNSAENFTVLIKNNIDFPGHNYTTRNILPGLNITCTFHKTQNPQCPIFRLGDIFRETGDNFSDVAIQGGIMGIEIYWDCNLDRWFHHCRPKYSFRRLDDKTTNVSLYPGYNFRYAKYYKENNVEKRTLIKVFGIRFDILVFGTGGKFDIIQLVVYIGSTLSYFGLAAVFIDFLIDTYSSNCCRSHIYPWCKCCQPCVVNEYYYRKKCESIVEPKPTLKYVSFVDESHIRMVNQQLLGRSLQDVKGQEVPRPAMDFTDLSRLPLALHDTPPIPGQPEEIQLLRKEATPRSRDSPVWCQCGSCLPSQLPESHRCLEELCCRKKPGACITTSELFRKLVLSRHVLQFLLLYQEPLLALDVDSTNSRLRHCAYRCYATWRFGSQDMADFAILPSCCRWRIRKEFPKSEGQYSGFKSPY

[9] = molecular target: T3, P2X7R mutant Insert G99 (Homo sapiens, UniProt Q99572, I21V/INS99D/M24R/N16P/N25R/Q22R/R20V/S23N/T19I/Y26L); design: method as in Allsopp et al., 2017; details: aspartic acid inserted between G99 and N100; ref Allsopp et al., 2017; cited from earlier work
T3 construct: expressed in transfected cells; host or cells: Xenopus laevis oocytes (cRNA injection)
T3 sequence (Q99572 with tags, fused parts or gaps N16P/T19I/R20V/I21V/Q22R/S23N/M24R/N25R/Y26L/INS99D): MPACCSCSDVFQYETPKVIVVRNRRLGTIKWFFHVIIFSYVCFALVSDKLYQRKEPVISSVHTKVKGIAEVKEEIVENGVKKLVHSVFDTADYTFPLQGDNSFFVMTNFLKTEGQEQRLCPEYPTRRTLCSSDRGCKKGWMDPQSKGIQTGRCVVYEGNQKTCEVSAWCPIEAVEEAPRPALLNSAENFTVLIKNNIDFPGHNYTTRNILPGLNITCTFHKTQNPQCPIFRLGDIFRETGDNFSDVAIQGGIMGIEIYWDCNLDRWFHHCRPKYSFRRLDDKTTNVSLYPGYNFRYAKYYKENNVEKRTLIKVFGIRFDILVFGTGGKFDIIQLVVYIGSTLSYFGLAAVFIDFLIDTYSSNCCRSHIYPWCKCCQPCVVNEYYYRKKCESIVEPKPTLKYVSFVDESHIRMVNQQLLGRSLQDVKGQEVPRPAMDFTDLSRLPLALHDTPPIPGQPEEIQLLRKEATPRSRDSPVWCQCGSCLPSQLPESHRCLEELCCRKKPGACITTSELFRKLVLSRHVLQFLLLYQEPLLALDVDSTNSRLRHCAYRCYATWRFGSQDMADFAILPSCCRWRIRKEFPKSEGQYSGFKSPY

SMILES: COc1ccc(CC(=O)NC(N=C(NC#N)Nc2cccc3ncccc23)C(C)(C)C)cc1OC (stereo not drawn) [A740003, N-[1-[[(cyanoamino)(5-quinolinylamino)methylene]amino]-2,2-dimethylpropyl]-3,4-dimethoxybenzeneacetamide]
- fold decrease in antagonist sensitivity/affinity relative to P2X7-2Nβ [1]: ~4 fold
- effect on antagonist sensitivity relative to P2X7-2Nβ [2]: no effect
- fold decrease in antagonist sensitivity relative to P2X7-2Nβ [3]: ~3 fold
- fold decrease in antagonist sensitivity relative to P2X7-2Nβ [4]: ~5 fold
- effect on antagonist sensitivity relative to P2X7-2Nβ [5]: no effect
- fold decrease in antagonist sensitivity relative to P2X7-2Nβ [6]: ~4 fold

SMILES: Cl.Cl.O=C(CC12CC3CC(CC(C3)C1)C2)Nc1cccc2nc(NCCNCCO)ccc12 [AZ10606120, N-[2-[[2-[(2-hydroxyethyl)amino]ethyl]amino]-5-quinolinyl]-2-tricyclo[3.3.1.13,7]dec-1-ylacetamide dihydrochloride]
- fold decrease in antagonist affinity [7]: > 300 fold
- fold decrease in antagonist sensitivity [8]: 40 fold
- effect on antagonist binding [9]: little effect
